Data set [1] deals with HeLa. Put plainly: Cytotoxicity against human HeLa cells assessed as reduction in cell viability incubated for 24 hrs by CCK-8 assay. In kind it is functional, cell-based. For orientation: Tetrazolium dyes change colour on reduction, which living cells bring about.
Data set [2] concerns HeLa. Put plainly: Induction of autophagy in human HeLa cells assessed as change in caspase 4 activity at 87.04 uM incubated for 48 hrs at wavelength of 405 nm by MDC staining based flow cytometric analysis (reference value: 0.052). In kind it is functional.
Data set [3] concerns HeLa. The data set can be described thus: Induction of apoptosis in human HeLa cells assessed as late apoptotic cells at 6.8 uM incubated for 48 hrs by Annexin V-Alexa fluor 647 and propidium iodide staining based flow cytometry relative to control. In kind it is functional. For orientation: Flow cytometry measures light scatter and fluorescence of single cells or particles in a stream.

For data set [4], the system named is HeLa. Put plainly: Induction of ROS generation in human HeLa cells assessed as increase in ROS level incubated for 1 to 36 hrs by DCFH-DA staining based confocal imaging analysis. It counts as functional, cell-based. The following applies: time 1-36 hrs.
For data set [5], the system named is HeLa. Put plainly: Induction of autophagy in human HeLa cells assessed as change in caspase 1 activity at 43.52 uM incubated for 48 hrs by MDC staining based flow cytometric analysis (reference value: 0.06. In kind it is functional.
In data set [6] the test system is HeLa. Put plainly: Induction of autophagy in human HeLa cells assessed as change in caspase 4 activity at 5.44 uM incubated for 48 hrs at wavelength of 405 nm by MDC staining based flow cytometric analysis (reference value: 0.052). In kind it is functional.
The subject of data set [7] is HeLa. Put plainly: Induction of apoptosis in human HeLa cells assessed as viable cells at 6.8 uM incubated for 48 hrs by Annexin V-Alexa fluor 647 and propidium iodide staining based flow cytometry relative to control. It counts as functional. The settings on record: read-out: Activity.
Data set [8] has as its system HeLa. Put plainly: Induction of apoptosis in human HeLa cells assessed as necrotic cells at 13.6 uM incubated for 48 hrs by Annexin V-Alexa fluor 647 and propidium iodide staining based flow cytometry relative to control. In kind it is functional.
For data set [9], the system named is HeLa. Put plainly: Induction of autophagy in human HeLa cells assessed as change in caspase 1 activity at 10.88 uM incubated for 48 hrs by MDC staining based flow cytometric analysis (reference value: 0.06). It counts as functional.
The test system of data set [10] is HeLa. Put plainly: Induction of apoptosis in human HeLa cells assessed as late apoptotic cells at 13.6 uM incubated for 48 hrs by Annexin V-Alexa fluor 647 and propidium iodide staining based flow cytometry relative to control. In kind it is functional.
Data set [11] concerns HeLa. The data set can be described thus: Induction of autophagy in human HeLa cells assessed as change in caspase 1 activity at 87.04 uM incubated for 48 hrs by MDC staining based flow cytometric analysis (reference value: 0.06). It counts as functional.
Data set [12] deals with HeLa. Put plainly: Induction of autophagy in human HeLa cells assessed as change in caspase 1 activity at 5.44 uM incubated for 48 hrs by MDC staining based flow cytometric analysis (reference value: 0.06). It counts as functional.
Data set [13] concerns HeLa. Put plainly: Induction of apoptosis in human HeLa cells assessed as viable cells at 27.2 uM incubated for 48 hrs by Annexin V-Alexa fluor 647 and propidium iodide staining based flow cytometry relative to control. It counts as functional. The following applies: read-out: Activity.
The subject of data set [14] is HeLa. The data set can be described thus: Induction of autophagy in human HeLa cells assessed as change in caspase 4 activity at 10.88 uM incubated for 48 hrs at wavelength of 405 nm by MDC staining based flow cytometric analysis (reference value: 0.052). It counts as functional.
Data set [15] has as its system HeLa. Put plainly: Induction of autophagy in human HeLa cells assessed as change in caspase 4 activity at 21.76 uM incubated for 48 hrs at wavelength of 405 nm by MDC staining based flow cytometric analysis (reference value: 0.052). In kind it is functional.
The subject of data set [16] is HeLa. Put plainly: Induction of apoptosis in human HeLa cells assessed as necrotic cells at 6.8 uM incubated for 48 hrs by Annexin V-Alexa fluor 647 and propidium iodide staining based flow cytometry relative to control. In kind it is functional.
For data set [17], the system named is HeLa. The data set can be described thus: Induction of ROS generation in human HeLa cells assessed as increase in ROS level incubated for 48 hrs by DCFH-DA staining based confocal imaging analysis. In kind it is functional, cell-based.
The test system of data set [18] is HeLa. Put plainly: Induction of autophagy in human HeLa cells assessed as change in caspase 1 activity at 21.76 uM incubated for 48 hrs by MDC staining based flow cytometric analysis (reference value: 0.06). It counts as functional.
In data set [19] the test system is HeLa. Put plainly: Induction of apoptosis in human HeLa cells assessed as early apoptotic cells at 27.2 uM incubated for 48 hrs by Annexin V-Alexa fluor 647 and propidium iodide staining based flow cytometry relative to control. It counts as functional.
Data set [20] deals with HeLa. The data set can be described thus: Induction of apoptosis in human HeLa cells assessed as early apoptotic cells at 13.6 uM incubated for 48 hrs by Annexin V-Alexa fluor 647 and propidium iodide staining based flow cytometry relative to control. In kind it is functional.
In data set [21] the test system is HeLa. The data set can be described thus: Induction of apoptosis in human HeLa cells assessed as necrotic cells at 27.2 uM incubated for 48 hrs by Annexin V-Alexa fluor 647 and propidium iodide staining based flow cytometry relative to control. In kind it is functional.
For data set [22], the system named is HeLa. The data set can be described thus: Induction of autophagy in human HeLa cells assessed as change in caspase 4 activity at 43.52 uM incubated for 48 hrs at wavelength of 405 nm by MDC staining based flow cytometric analysis (reference value: 0.052). In kind it is functional.
A further data set has as its system T-24. Put plainly: Cytotoxicity against human T24 cells assessed as reduction in cell viability incubated for 24 hrs by CCK-8 assay. It counts as functional, cell-based. The following applies: T-24, 24 h.
Data set [23] deals with HeLa. Put plainly: Induction of apoptosis in human HeLa cells assessed as viable cells at 13.6 uM incubated for 48 hrs by Annexin V-Alexa fluor 647 and propidium iodide staining based flow cytometry relative to control. It counts as functional. The settings on record: read-out: Activity.
For data set [24], the system named is HeLa. The data set can be described thus: Induction of apoptosis in human HeLa cells assessed as early apoptotic cells at 6.8 uM incubated for 48 hrs by Annexin V-Alexa fluor 647 and propidium iodide staining based flow cytometry relative to control. It counts as functional.
The subject of data set [25] is HeLa. The data set can be described thus: Induction of pyroptosis in human HeLa cells at 10.88 to 43.52 uM. The settings on record: dose 10.88-43.52 µM. In kind it is functional, cell-based.
The subject of data set [26] is HeLa. The data set can be described thus: Induction of apoptosis in human HeLa cells assessed as late apoptotic cells at 27.2 uM incubated for 48 hrs by Annexin V-Alexa fluor 647 and propidium iodide staining based flow cytometry relative to control. In kind it is functional.
A short description of data set [27]: Reactivity of compound assessed as consumption of H2O2 by measuring phenol intermediate formation after 1 hr relative to control. It counts as physicochemical.

Here are results for 20 molecules from ChEMBL document CHEMBL6115027, “Bisboronic Ester-Enabled Redox-Targeted Cancer Therapy: A Cascade ROS Consumption Approach for Efficient Elimination of Cancer Cells” (J Med Chem, 2025).

The structures appear in SMILES notation. The source made the active and inactive calls. The calls are words filed in the database; no cut-off is given here.

For the molecule `CC1(C)OB(c2ccc(-c3ccc(B4OC(C)(C)C(C)(C)O4)c4ccccc34)c3ccccc23)OC1(C)C`, the IC50 (commonly the concentration needed to halve the response being measured) in the data set with HeLa [1] worked out at 690 nM.
For the molecule `CC1(C)OB(c2ccc(F)c(CCc3cc(B4OC(C)(C)C(C)(C)O4)ccc3F)c2)OC1(C)C`, the OD came to 0.051 in the data set with HeLa [2]; 0.061 in the data set with HeLa [5]; 0.052 with HeLa [6]; 0.062 in the data set on HeLa [9]; 0.062 in the data set with HeLa [11]; 0.058 with HeLa [12]. Further, the OD is listed as 0.053 in the data set on HeLa [14], 0.051 in the data set with HeLa [15], 0.06 in the data set on HeLa [18] and 0.051 in the data set on HeLa [22]. For the same molecule, the Activity with HeLa [3] turned out to be 0.073%; in the data set with HeLa [8] it was 1.54%; with HeLa [10], 0.41%; with HeLa [16], 0.38%; in the data set on HeLa [19], 4.28%; with HeLa [20], 2.44%. Moreover, the figures for the Activity with HeLa [21], with HeLa [24] and in the data set on HeLa [26] were 1.41%, 1.43% and 0.63%, respectively. Also, the outcome in the data set on HeLa [4] was inactive. Besides, the viability at 6.8 µM in the data set on HeLa [7] came to 96.1%. In addition, the results for the IC50 in the data set on HeLa [1] and in the data set on T-24 were 680 nM and 1140 nM, respectively. Further, the viability at 27.2 µM in the data set with HeLa [13] came out at 93.7%. For the same molecule, the outcome with HeLa [17] and in the data set with HeLa [25] was Active. For the same molecule, the viability at 13.6 µM with HeLa [23] stood at 95.6%.
For `CC1(C)OB(c2ccc(-c3ccc(B4OC(C)(C)C(C)(C)O4)cc3)cc2)OC1(C)C`, the IC50 with HeLa [1] turned out to be 1950 nM. Further, in [27], the Activity is 96%.
Turning to `CC1(C)COB(c2cccc(CCc3cccc(B4OCC(C)(C)CO4)c3)c2)OC1`, in the data set on HeLa [1], the IC50 was determined as 3440 nM.
The same measure, in the same setting: the result for `CCC1(CC)OB(c2ccc(Cc3ccc(B4OC(C)(C)C(C)(C)O4)cc3)cc2)OC1(CC)CC` reads 2110 nM.
On the same count and under the same terms, for `CC1(C)OB(c2cc(C(=O)Oc3ccc4c(c3)OCO4)cc(-c3cc(B4OC(C)(C)C(C)(C)O4)cc(C(=O)Oc4ccc5c(c4)OCO5)c3)c2)OC1(C)C` the value was 1000 nM; for `COc1ccc(-c2ccc(OC)c(B3OC(C)(C)C(C)(C)O3)c2)cc1B1OC(C)(C)C(C)(C)O1`, 830 nM; for `CC(C)(C)c1cc(B2OC(C)(C)C(C)(C)O2)cc(-c2cc(B3OC(C)(C)C(C)(C)O3)cc(C(C)(C)C)c2)c1`, 900 nM.
Take `CC1(C)COB(c2ccc(CCc3ccc(B4OCC(C)(C)CO4)cc3)cc2)OC1`: in the data set with HeLa [1], the IC50 is 870 nM.
On to `CC1(C)OB(c2ccc(Cc3ccc(B4OC(C)(C)C(C)(C)O4)cc3)cc2)OC1(C)C`, for which, in the data set on HeLa [1], the IC50 stood at 3150 nM.
Same read-out and setting: for `CC1(C)OB(c2ccc(-c3ccc(-c4ccc(-c5ccc(B6OC(C)(C)C(C)(C)O6)cc5)cc4)cc3)cc2)OC1(C)C` the value was 2270 nM.
Still for that read-out and setting: for `CC1(C)OB(c2ccc(CCc3ccc(B4OC(C)(C)C(C)(C)O4)c4ccccc34)c3ccccc23)OC1(C)C` the value was 3440 nM; for `CC1(C)OB(c2cc(F)ccc2CCc2ccc(F)cc2B2OC(C)(C)C(C)(C)O2)OC1(C)C`, 1800 nM.
Still for that read-out and setting: for `CC1(C)OB(c2ccc(-c3ccc(B4OC(C)(C)C(C)(C)O4)c(F)c3)cc2F)OC1(C)C` the value was 2600 nM; for `CC1(C)OB(c2cccc(CCc3cccc(B4OC(C)(C)C(C)(C)O4)c3F)c2F)OC1(C)C`, 11800 nM; for `CC1(C)OB(c2ccc(CCc3ccc(B4OC(C)(C)C(C)(C)O4)cc3)cc2)OC1(C)C`, 710 nM.
Turning to `CC1(C)OB(c2ccc(Cc3ccc(B4OC(C)(C)C(C)(C)O4)c4ccccc34)cc2)OC1(C)C`, the IC50 in the data set with HeLa [1] amounted to 630 nM.
Still for that read-out and setting: the result for `CC1(C)OB(c2cc(C(F)(F)F)ccc2CCc2ccc(C(F)(F)F)cc2B2OC(C)(C)C(C)(C)O2)OC1(C)C` reads 700 nM.
For `CC1(C)OB(c2cc(C(=O)Oc3ccc(-c4ccccc4)cc3)cc(-c3cc(B4OC(C)(C)C(C)(C)O4)cc(C(=O)Oc4ccc(-c5ccccc5)cc4)c3)c2)OC1(C)C`, in the data set on HeLa [1], the IC50 turned out to be 700 nM.
With `Cc1cc(B2OC(C)(C)C(C)(C)O2)cc(-c2cc(C)cc(B3OC(C)(C)C(C)(C)O3)c2)c1`, the IC50 in the data set with HeLa [1] came out at 790 nM.
